Data: article PMC11077815, “Synthesis and antitumor activity of dolutegravir derivatives bearing 1,2,3-triazole moieties” (BMC Chemistry, 2024)

Key:
[1] = system: HRM (Human Renal Mesangial) cell line; test: CCK8 cell viability assay, HRM normal cells (toxicity control); type: cell-based; settings: for IC50: HRM normal human cells, 48 h, CCK8, mean ± SE
Description: Based on these preliminary results, compounds 9c, 9e, 9f, 9i, 9k, 9 L, 9p, 9q, 9t, 9u, 9v, 9w, 10c, 10e which were effective to most of the cell lines were chosen for the measurement of the half-maximal inhibitory concentration (IC50). […] HRM (Human Renal Mesangial) cell line was used as a control to study the toxicity of these compounds against normal human cells.
CCK8 assay was used to measure cell viability. Cells with a density of 1 × 10^4 cells/well were seeded on the 96-well plates. After adhesion, cells were treated with different diluted compounds or vehicle control DMSO and continue cultured for 48 h. Then, CCK8 reagent was added for one hour incubation at 37 °C with 5% of CO2. Absorbance was measured using a microplate spectrophotometer (Thermo) at 450 nm. The ratio of cell viability of control was taken as 100%. […] Then IC50 of the compounds were investigated using the prism statistical software.

[2] = system: PC-9; test: LIVE/DEAD staining, PC-9; type: cell-based, Human; settings: PC-9, 5, 10 or 20 µM, 24 h
Description: LIVE/DEAD staining experiments were carried out to evaluate the anti-proliferative activity of dolutegravir derivatives 9e and 9p against PC-9 and H460 cell lines. The tumor cells were treated with 5 µM, 10 µM or 20 µM of 9e and 9p for 24 h. The live and dead cells were photographed and counted.
PC-9 and H460 cells with a density of 5 × 10^3 cells/well were seeded on the 96-well plates. Then different concentrations (0, 5 µM, 10 µM, 20 µM) of 9e or 9p were treated for 24 h. Cells were then stained with the LIVE/DEAD Assay Kit, observed and photographed using the fluorescent microscope.

[3] = system: PC-9; test: Plate clone formation assay, PC-9; type: cell-based, Human; settings: PC9, 0, 2, 4, 8, 16 and 32 µM, 48 h
Description: (§1) The plate clone formation experiments were also carried outto further confirm the effects of dolutegravir derivatives on cell proliferation. Compounds 9e and 9p with different concentrations (0, 2, 4, 8, 16 and 32 µM) were added to the cells.
(§2) PC-9 and H460 cells were seeded into 6-well plates at a density of 100–500 cells/well. After 10 days culture, cells were added with 9e or 9p at different concentrations (0, 2 µM, 4 µM, 8 µM, 16 µM, 32 µM) for 48 h. Then cells were fixed by 4% paraformaldehyde and stained by Giemsa dye. An optical microscope was used to photograph cells and count the clone numbers.

[4] = system: H460; test: Plate clone formation assay, H460; type: cell-based, Human; settings: H460, 0, 2, 4, 8, 16 and 32 µM, 48 h
Description: as §1, §2

[5] = system: H460; test: Apoptosis assay (Annexin V-FITC/PI flow cytometry), H460; type: cell-based, Human; settings: 48 h
Description: Further, the effects of 9e and 9p on the apoptosis of tumor cells were studied to get details of the suppression of cell proliferation caused by these compounds. PC-9 and H460 cells treated with different concentrations of 9e or 9p were stained with Annexin V-FITC and PI, and the numbers of apoptosis cells were analyzed by the flow cytometry.
PC-9 and H460 cells were cultured in 6-well plates with a density of 3 × 10^5 cells/well. Different concentrations of 9e or 9p were added to cells for 48 h respectively. The concentrations were 0, 2, 4, and 8 µM for PC-9 cells and 0, 4, 8 and 16 µM for H460 cells. After treatment, Annexin V-FITC Apoptosis Detection Kit was used to determine the apoptotic ratio and FlowJo software v10 was used to analyze of the results.

[6] = system: PC-9; test: Cell cycle assay (PI staining, flow cytometry), PC-9; type: cell-based, Human; settings: 48 h
Description: (§3) Cancer cell lines PC-9 and H460 were then treated for 48 h with 9e or 9p at different concentrations to investigate the effects of these compounds on regulating the cell cycle. Cell cycle distributions were analyzed using the flow cytometry technique.
(§4) PC-9 and H460 cells were cultured in 6-well plates with a density of 3 × 10^5 cells/well. Cells were treated with different concentrations (0, 4, and 8 µM for PC-9 cells and H460 cells) of 9e or 9p for 48 h respectively. Then the cell cycle was determined by PI staining with the flow cytometer.

[7] = system: H460; test: Cell cycle assay (PI staining, flow cytometry), H460; type: cell-based, Human; settings: H460, 48 h, 4 and 8 µM
Description: as §3, §4

[8] = system: PC-9; test: Cellular ROS measurement (DCFH-DA), PC-9; type: cell-based, Human; settings: PC-9, 5 µM and 10 µM, 24 h, DCFH-DA staining
Description: Reactive oxygen species could induce cell death and suppress cell growth and proliferation. To assess the role of compounds 9e and 9p in ROS generation, different cancer cell lines were treated with 9e or 9p for 24 h. DCFDA was used to stain cells and ROS was detected with fluorescent microscope.
PC-9 and H460 cells were cultured in 96-well plates in a density of 5 × 10^3 cells/well. Different concentrations (0, 5 and 10 µM) of 9e or 9p were added to cells respectively for 24 h. After treatment, cells were stimulated with 10 µM DCFH-DA for 30 min at 37 °C, then observed and photographed using a fluorescent microscope.

[9] = system: LC3; test: Western blot of LC3 in PC-9 cells; type: cell-based, Human; settings: PC-9, 0, 2, 4, 8 µM, 48 h
From the text: (§5) To determine the role of compounds 9e and 9p on regulating the development of cell proliferation, expressions of key proteins which were involved in cell growth progresses such as autophagy, apoptosis, cell cycle and DNA damage were examined. Ubiquitin like molecule light chain 3 (LC3) is a key marker of autophagy. […] Caspase3, which is one of the key proteins in regulating apoptosis, however, was not changed in tumor cells after treated with 9e or 9p. Cell cycle regulation proteins such as CyclinD, CyclinE or β-catenin were also not affected when PC-9 was treated with 9e or 9p. Further, H2AX variant histone (γ-H2AX), which was responsible for DNA damage, was also not affected when PC-9 were treated with 9e or 9p.
(§6) Protein expression levels were measured by western blot. PC-9 cells were cultured in 12-well plates and different concentrations (0, 2, 4, 8µM) of 9e and 9p were added for 48 h. Proteins were extracted from whole cells using radioimmunoprecipitation assay (RIPA). Buffer containing protease/phosphatase inhibitor cocktail (CST). Sodium dodecyl sulfate (10-15%) polyacrylamide gel electrophoresis and nitrocellulose membranes (Millipore) were used to separate and collect proteins. Antibodies used include, LC3 (3868s, CST), Caspase3 (9662, CST), cyclin D (2922s, CST), cyclin E (20808s, CST), γ-H2AX (9718s, CST), and β-actin (4967s, CST).

[10] = system: Caspase3; test: Western blot of Caspase3 in PC-9 cells; type: cell-based, Human; settings: PC-9, 0, 2, 4, 8 µM, 48 h
From the text: as §5, §6

[11] = system: γ-H2AX; test: Western blot of γ-H2AX in PC-9 cells; type: cell-based, Human; settings: PC-9, 0, 2, 4, 8 µM, 48 h
From the text: as §5, §6

Row | SMILES | toxicity against normal cells ([1]; HRM cells) | IC50 [1] | number of live cells [2] | ratio of dead/live cells [2] | plate clone formation (cell proliferation) [3] | plate clone formation (cell proliferation) [4] | cell apoptosis ([5]; H460, 8 µM and 16 µM) | effect on cell cycle ([6]; PC-9, 4 µM) | effect on cell cycle ([6]; PC-9, 8 µM) | effect on cell cycle [7] | ROS generation [8] | expression of LC3 [9] | Caspase3 expression [10] | γ-H2AX expression [11] | cell apoptosis ([5]; H460, 4 µM, 8 µM and 16 µM) | effect on cell cycle ([6]; PC-9, 4 µM and 8 µM)
1 | COc1c2n(cc(C(=O)Nc3cccc(-c4cn(-c5cccc([N+](=O)[O-])c5C)nn4)c3)c1=O)C[C@@H]1OCC[C@@H](C)N1C2=O [Compound 9e] | low toxicity against normal cells | > 50 µM | decreased significantly in a dose dependent manner | increased significantly with the increase of concentration | anti-proliferative activity against cell lines PC9 and H460 in a dose-dependent manner | anti-proliferative activity against cell lines PC9 and H460 in a dose-dependent manner | significant increased apoptosis | moderate effects on cell cycle | decreased G0/G1 phase and increased S and G2/M phase | increased G2/M phase and had little influences on G0/G1 or S phase | significantly increased | significantly increased | not changed | not affected | – | –
2 | COc1c2n(cc(C(=O)Nc3cccc(-c4cn(-c5cccc(C(F)(F)F)c5)nn4)c3)c1=O)C[C@@H]1OCC[C@@H](C)N1C2=O [Compound 9p] | – | 35.6 ± 10.8 µM | decreased with the increase of concentration | increased compared with untreated group but not completely in a dose dependent manner | anti-proliferative activity against cell lines PC9 and H460 in a dose-dependent manner | anti-proliferative activity against cell lines PC9 and H460 in a dose-dependent manner | – | – | – | significantly decrease the S phase | significantly increased | significantly increased | not changed | not affected | significantly increased apoptosis | induced an S and G2/M cell cycle arrest
